Assay results from US20240150277A1, “Covalent PPARG inverse-agonists” (Bayer Aktiengesellschaft, priority 2022, published 2024).
Read-outs that look alike come from different tables or passages of the source.

Experiments:
[1] = system: UMUC9 cells; assay: Proliferation UMUC9 H2B-GFP assay (Incucyte); format: cell-based; settings: 7 days of treatment; for Emax: UM-UC-9, 168 h, % efficacy (span); for IC50: UM-UC-9, relative IC50, Day 1 subtracted, percentage of DMSO control
Method: Proliferation UMUC9 H2B-GFP assay
Instrument: Incucyte® (Sartorius).
Description: Incucyte® Proliferation Assay measures cell proliferation based on nuclei count using live-cell time-lapse imaging. […] Measurements were performed on the day of treatment (Day 1 reading) and after 7 days of treatment (Day 8 reading). Green fluorescence in cell nuclei is measured using the instrument (Image Channels: Phase, Green; Acquisition time: 300 ms; Magnification: 4×).
Analysis: Selected metrics for analysis: Phase Object Confluence (Percent), Nuclei Count (1/Well) and Total Nuclei Area (μm^2/Well). Day 1 measurements were subtracted from each Day 8 measurement and expressed as percentage of the vehicle (DMSO) control. Percentage proliferation values were then plotted against compound concentration using GraphPad PRISM software. The Sigmoidal 4PL X is log (concentration) model of […] was used. Relative IC50 values and % efficacy (span) is reported below.

[2] = molecular target: T1, PPARG receptors (Homo sapiens, UniProt P37231); assay: RT-112-FABP4-NLuc Reporter Gene Assay (inverse agonism); format: cell-based; settings: incubated over night; for IC50: bladder cancer cell line RT-112/84, NanoLuc in FABP4 3′ UTR, 50 μM to 0.03 nM; for Emax: RT112/84, read-out: PPARG_RT-112_FABP4_NLuc_inverse agonist Efficacy - [%], bladder cancer cell line RT-112/84, NanoLuc in FABP4 3′ UTR
T1 construct: leading to PPARG dependent expression of the NanoLuc@ Luciferase; endogenous in cells
T1 sequence (P37231 1-505): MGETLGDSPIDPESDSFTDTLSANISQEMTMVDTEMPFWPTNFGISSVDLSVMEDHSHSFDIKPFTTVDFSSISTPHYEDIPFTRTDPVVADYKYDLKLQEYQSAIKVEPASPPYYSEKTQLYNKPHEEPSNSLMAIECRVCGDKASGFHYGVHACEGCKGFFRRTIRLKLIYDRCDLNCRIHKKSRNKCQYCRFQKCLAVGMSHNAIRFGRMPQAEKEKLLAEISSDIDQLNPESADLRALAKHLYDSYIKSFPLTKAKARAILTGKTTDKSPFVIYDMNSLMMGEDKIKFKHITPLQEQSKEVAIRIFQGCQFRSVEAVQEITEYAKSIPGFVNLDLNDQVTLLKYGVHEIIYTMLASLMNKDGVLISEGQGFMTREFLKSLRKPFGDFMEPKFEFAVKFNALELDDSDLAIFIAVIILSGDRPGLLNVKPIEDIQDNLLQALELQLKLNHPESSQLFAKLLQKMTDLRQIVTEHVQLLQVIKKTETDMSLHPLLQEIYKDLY
Method: Inverse agonists reduce the basal expression of the Luciferase resulting in a decrease of the Luciferase signal after addition of substrate and cell lysis. To exclude toxic effects of the compounds a parallel measurement of cell viability was performed based on the CellTiter Glo Assay (Promega).
On the next day 10 μl of test compounds dissolved in DMEM/F12 2% FBS and 0,01% BSA are placed in the wells of the microtiter plates. Final concentrations ranged from 50 μM to 0.03 nM. […] On the next day the NanoLuc Luciferase activity was measured by addition of 40 μl of NanoLuc substrate and lysis buffer (Promega, Madison, Wisconsin) diluted in 2 mM Ca-tyrode buffer (20 mM HEPES, 130 mM NaCl, 5 mM KCl, 5 mM NaHCO3, 2 mM MgCl2, pH 7,4). The resulting light signal was measured for 60 seconds in a luminometer. Every sample was tested in quadruples and mean values were used to calculate the IC50 values and efficacies of the compounds.

[3] = PPARG_RT-112_FABP4_NLuc_inverse agonist IC50 - [mol/l]
[4] = read-out: PPARG_RT-112_FABP4_NLuc_inverse agonist IC50 - [mol/l]

Row | IC50 [2, 3] | Emax [2] | IC50 [2, 4] | SMILES | Emax [1] | IC50 [1]
1 | 0.815 nM | 148% | – | Cc1noc(-c2ccc(NC(=O)c3cc(C(=O)NCc4ccc(F)cc4)c(F)cc3Cl)cc2)n1 [Example 23, 4-chloro-6-fluoro-N^1-[(4-fluorophenyl)methyl]-N^3-[4-(3-methyl-1,2,4-oxadiazol-5-yl)phenyl]benzene-1,3-dicarboxamide] | 54% | 3.77 nM
2 | 7.65 nM | 92.5% | – | Cc1ccc(NC(=O)c2cc(C(=O)NCc3ccccc3)c(F)cc2Cl)cc1 [Example 24, N^1-benzyl-4-chloro-6-fluoro-N^3-(4-methylphenyl)benzene-1,3-dicarboxamide] | 24.4% | 25.1 nM
3 | 40 nM | 99.3% | – | Cc1ccccc1NC(=O)c1cc(C(=O)NCc2ccccc2)c(F)cc1Cl [Example 25, N1-benzyl-4-chloro-6-fluoro-N^3-(2-methylphenyl)benzene-1,3-dicarboxamide] | – | > 6000 nM
4 | – | 94% | 7.35 nM | COCCOCc1cc(F)ccc1CNC(=O)c1cc(C(=O)Nc2ccc(C(F)(F)F)cc2C)c(Cl)cc1F [Example 26, 4-chloro-6-fluoro-N^1-({4-fluoro-2-[(2-methoxyethoxy)methyl]phenyl}methyl)-N^3-[2-methyl-4-(trifluoromethyl)phenyl]benzene-1,3-dicarboxamide] | 73.4% | 27.5 nM
5 | 0.3 nM | 86.8% | – | O=C(NCc1ccccc1)c1cc(Cl)c(Cl)c(C(=O)Nc2ccc(OC(F)F)cc2)c1F [Example 31, N^1-benzyl-4,5-dichloro-N^3-[4-(difluoromethoxy)phenyl]-2-fluorobenzene-1,3-dicarboxamide] | – | > 6000 nM
6 | 1.05 nM | 94% | – | O=C(NCc1ccccc1)c1cc(Cl)c(Cl)c(C(=O)Nc2ccc(C3COC3)cc2)c1F [Example 33, N^1-benzyl-4,5-dichloro-2-fluoro-N3-[4-(oxetan-3-yl)phenyl]benzene-1,3-dicarboxamide] | 59.8% | 4.91 nM
7 | – | 95% | 54.5 nM | O=C(NCc1ccc(F)c(F)c1)c1cc(C(=O)Nc2ccccn2)c(Cl)cc1F [Example 34, 4-chloro-N^1-(3,4-difluorobenzyl)-6-fluoro-N^3-(pyridin-2-yl)isophthalamide] | 100% | –
8 | 21.5 nM | 102% | – | O=C(NCc1ccc(F)c(F)c1)c1cc(C(=O)Nc2ccc(N3CCOCC3)cc2)c(Cl)cc1F [Example 35, 4-chloro-N^1-(3,4-difluorobenzyl)-6-fluoro-N^3-(4-morpholinophenyl)isophthalamide] | 92.3% | 182 nM
9 | 1.26 nM | 97.5% | – | O=C(NCc1ccc(F)c(F)c1)c1cc(C(=O)Nc2cnc(Oc3ccccc3)cn2)c(Cl)cc1F [Example 36, 4-chloro-N^1-(3,4-difluorobenzyl)-6-fluoro-N^3-(5-phenoxypyrazin-2-yl)isophthalamide] | 66% | 5.98 nM
10 | 0.73 nM | 98.5% | – | COc1ccccc1CNC(=O)c1cc(Cl)c(Cl)c(C(=O)Nc2ccc(N3CCOCC3)cn2)c1 [Example 38, 4,5-dichloro-N^1-(2-methoxybenzyl)-N^3-(5-morpholinopyridin-2-yl)isophthalamide] | 49.5% | 4.23 nM
11 | – | 95.5% | 6.55 nM | Cc1cccc(-c2nc3cc(NC(=O)c4cc(C(=O)NCc5ccc(F)c(F)c5)c(F)cc4Cl)ccc3o2)c1 [Example 39, 4-chloro-N^1-(3,4-difluorobenzyl)-6-fluoro-N^3-(2-(m-tolyl)benzo[d]oxazol-5-yl)isophthalamide] | 88.7% | 34.2 nM
12 | 1600 nM | 114% | – | C#Cc1cc(F)c(C(=O)NCc2ccc(F)c(F)c2)cc1C(=O)Nc1ccccc1 [Example 40, N^1-(3,4-difluorobenzyl)-4-ethynyl-6-fluoro-N^3-phenylisophthalamide] | 72.1% | 391 nM
